Here are results for 11 molecules from ChEMBL document CHEMBL1201862, “PubChem BioAssay data set” (2004).

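Interpolation was linear, between the two tested concentrations surrounding the appropriate level; five concentrations were tested over 48 hours in 96-well plates. The concentration for 50% growth inhibition is given as GI50.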 Calls of active or inactive are those of the source. Cut-off read from the data, not from the text of the source: active = GI50 up to about 1.1 µM and inactive = higher.

Among the test systems are A498; COLO 205; EKVX; HCT-15; HL-60; HOP-62; LOX IMVI; MOLT-4; Malme-3M; NCI-H226; NCI-H23; NCI-H460; NCI/ADR-RES; OVCAR-8; RXF 393; SF-268; SF-539; SK-MEL-5; SNB-19; OVCAR-4.
What all share (experiment): growth of human tumour cells (NCI), 48 h

For the molecule `COC(=O)C1=COc2c(n(C)c3ccccc23)-c2ccccc21`, the GI50 with A498 is > 100 µM (inactive); with COLO 205, > 100 µM (inactive); in the test on EKVX it was > 100 µM (inactive); with HCT-15, over 100 µM; with HL-60, > 100 µM (inactive); in the test on HOP-62 it was > 100 µM (inactive). Further, the GI50 with LOX IMVI, in the test with MOLT-4, in the test on Malme-3M, in the test with NCI-H226, in the test on NCI-H23 and in the test with NCI-H460 was > 100 µM (inactive) each time. The GI50 in the test with NCI/ADR-RES was > 100 µM (inactive); in the test on OVCAR-8, > 100 µM (inactive); with RXF 393, > 100 µM (inactive); in the test on SF-268, > 100 µM (inactive); with SF-539, 81.1 µM (inactive); in the test on SK-MEL-5, 71.1 µM (inactive). The GI50 with SNB-19 is > 100 µM (inactive).

With `COc1cccc(OCC(=N/NC(=O)c2ccncc2)/N=C/c2cccnc2)c1`, the GI50 in the test on A498 is > 100 µM (inactive); in the test with COLO 205 it was > 100 µM (inactive); with EKVX, > 100 µM (inactive); with HCT-15 it was over 100 µM; with HL-60, > 100 µM (inactive); with HOP-62 it was > 100 µM (inactive). Besides, the GI50 in the test with LOX IMVI was > 100 µM (inactive); with MOLT-4, 49.7 µM (inactive); with Malme-3M, > 100 µM (inactive); in the test with NCI-H226 it was > 100 µM (inactive); in the test with NCI-H23, > 100 µM (inactive); in the test with NCI-H460, > 100 µM (inactive). Further, the GI50 in the test with NCI/ADR-RES was > 100 µM (inactive); with OVCAR-4, > 100 µM (inactive); in the test on OVCAR-8, 86.3 µM (inactive); in the test on RXF 393, > 100 µM (inactive); in the test with SF-268, > 100 µM (inactive); in the test with SF-539 it was > 100 µM (inactive). Further, the GI50 in the test on SNB-19 was > 100 µM (inactive).

Turning to `Cc1nnc2n1-c1ccccc1-c1[nH]c3ccccc3c1C2`, the GI50 in the test on A498 is 19.2 µM (inactive); with COLO 205 it was 45 µM (inactive); with EKVX, > 100 µM (inactive); with HL-60, 21.2 µM (inactive); with HOP-62, 58.9 µM (inactive); in the test on LOX IMVI, 89.9 µM (inactive). For the same molecule, the GI50 was 45 µM (inactive) in the test on MOLT-4; 78.9 µM (inactive) in the test with Malme-3M; > 100 µM (inactive) with NCI-H226; 63.7 µM (inactive) with NCI-H23; 30.7 µM (inactive) in the test with NCI-H460; 69.8 µM (inactive) with NCI/ADR-RES. The GI50 with OVCAR-4 was 45.2 µM (inactive); with OVCAR-8, 38.1 µM (inactive); in the test with RXF 393, 44.1 µM (inactive); in the test on SF-268 it was > 100 µM (inactive); in the test on SF-539 it was > 100 µM (inactive); in the test on SK-MEL-5, 26.2 µM (inactive). Further, in the test on SNB-19, the GI50 is > 100 µM (inactive).

`O=CC(NC(=O)N(CCCl)N=O)C(O)C(O)C(O)CO` (stereo not given): the GI50 is 1120 µM (inactive) in the test on A498; > 1250 µM (inactive) in the test with COLO 205; > 1250 µM (inactive) in the test on EKVX; 1190 µM in the test on HCT-15; 287 µM (inactive) with HL-60; 136 µM (inactive) with HOP-62. In addition, the GI50 was 159 µM (inactive) with MOLT-4; 347 µM (inactive) in the test on Malme-3M; 1240 µM (inactive) with NCI-H226; 993 µM (inactive) in the test with NCI-H23; 272 µM (inactive) in the test on NCI-H460; 953 µM (inactive) in the test with NCI/ADR-RES. Also, the GI50 is > 449 µM (inactive) with OVCAR-4; 1160 µM (inactive) with OVCAR-8; 1150 µM (inactive) with RXF 393; 114 µM (inactive) in the test on SF-268; 119 µM (inactive) in the test on SF-539; 425 µM (inactive) in the test with SK-MEL-5. Besides, the GI50 in the test with SNB-19 is 312 µM (inactive).

For the molecule `COc1cc(OC)cc(Oc2nc3ccccc3nc2C(=O)O)c1`, the GI50 in the test on A498 is > 100 µM (inactive); in the test on COLO 205, > 100 µM (inactive); in the test on EKVX, > 100 µM (inactive); in the test on HCT-15, over 100 µM; in the test on HL-60, > 100 µM (inactive); with HOP-62 it was > 100 µM (inactive). Moreover, the GI50 in the test on LOX IMVI, in the test with MOLT-4, with Malme-3M, in the test on NCI-H226, with NCI-H23 and in the test with NCI-H460 was > 100 µM (inactive) each time. Also, the GI50 with NCI/ADR-RES was > 100 µM (inactive); in the test with OVCAR-4, 0.6 µM (active); in the test on OVCAR-8 it was > 100 µM (inactive); in the test on RXF 393, > 100 µM (inactive); in the test with SF-268, > 100 µM (inactive); in the test with SK-MEL-5 it was > 100 µM (inactive). Further, the GI50 in the test on SNB-19 is > 100 µM (inactive).

Regarding `Nc1ncnc2ccc(Sc3ccc4ncnc(N)c4c3)cc12`, the GI50 in the test on A498 was > 100 µM (inactive); in the test on COLO 205 it was > 100 µM (inactive); in the test on EKVX, > 100 µM (inactive); with HCT-15 it was over 100 µM; in the test with HL-60 it was > 100 µM (inactive); in the test on HOP-62 it was > 100 µM (inactive). Also, the GI50 with LOX IMVI, in the test with MOLT-4, in the test with Malme-3M, in the test on NCI-H226, with NCI-H460 and in the test on NCI/ADR-RES was > 100 µM (inactive) each time. The GI50 in the test with OVCAR-4, with OVCAR-8, in the test on RXF 393, in the test with SF-268, in the test on SF-539 and in the test on SK-MEL-5 was > 100 µM (inactive) each time. Also, the GI50 with SNB-19 is > 100 µM (inactive).

`C[C@]12CC[C@@H]3c4ccc(O)cc4CC[C@H]3[C@@H]1CC[C@@H]2OC(=O)CCc1ccccc1`: the GI50 is 17.4 µM (inactive) in the test with A498; 19.6 µM (inactive) with COLO 205; 10.8 µM (inactive) in the test on EKVX; 14.4 µM with HCT-15; 20.1 µM (inactive) with HL-60; 22.1 µM (inactive) in the test on HOP-62. For the same molecule, the GI50 with LOX IMVI was 18.2 µM (inactive); in the test with MOLT-4, 17 µM (inactive); in the test on Malme-3M, 17.6 µM (inactive); in the test with NCI-H226 it was 19.1 µM (inactive); in the test on NCI-H23, 17.7 µM (inactive); in the test with NCI-H460, 19.1 µM (inactive). Further, the GI50 is 16.6 µM (inactive) in the test with NCI/ADR-RES; 17.5 µM (inactive) with OVCAR-4; 22.8 µM (inactive) with OVCAR-8; 16.4 µM (inactive) in the test with RXF 393; 17.8 µM (inactive) in the test on SF-268; 17.1 µM (inactive) in the test with SK-MEL-5. Further, in the test with SNB-19, the GI50 is 18.5 µM (inactive).

Take `CS(=O)(=O)CCC1CCC(=O)O1` (stereo not given): the GI50 is > 100 µM (inactive) in the test on A498; > 100 µM (inactive) in the test on EKVX; over 100 µM in the test with HCT-15; > 100 µM (inactive) with HL-60; 40.5 µM (inactive) with HOP-62; 20.6 µM (inactive) in the test on LOX IMVI. In addition, the GI50 is 22 µM (inactive) in the test on MOLT-4; > 100 µM (inactive) in the test with Malme-3M; > 100 µM (inactive) with NCI-H226; 94.2 µM (inactive) in the test with NCI-H23; 69.5 µM (inactive) in the test with NCI-H460; > 100 µM (inactive) in the test with NCI/ADR-RES. The GI50 with OVCAR-8 was > 100 µM (inactive); with RXF 393 it was 49.2 µM (inactive); with SF-268, 51.9 µM (inactive); with SF-539 it was > 100 µM (inactive); with SK-MEL-5 it was > 100 µM (inactive); in the test on SNB-19, > 100 µM (inactive).

Regarding `CCCCCCCC/C=C\CCCCCCC(F)C(=O)O` (stereo not given), the GI50 is > 12.5 µM (inactive) in the test on A498; > 12.5 µM (inactive) in the test with COLO 205; 2.25 µM (inactive) with EKVX; over 12.5 µM in the test on HCT-15; > 12.5 µM (inactive) with HL-60; > 12.5 µM (inactive) in the test on HOP-62. For the same molecule, the GI50 in the test with LOX IMVI, in the test on MOLT-4, in the test on Malme-3M, in the test with NCI-H226, in the test with NCI-H23 and in the test on NCI/ADR-RES was > 12.5 µM (inactive) each time. In addition, the GI50 in the test with OVCAR-4, with OVCAR-8, in the test on RXF 393, in the test with SF-268, in the test on SF-539 and with SK-MEL-5 was > 12.5 µM (inactive) throughout. Moreover, the GI50 in the test with SNB-19 is > 12.5 µM (inactive).

With `C=C(C)CN(CC#N)CC(=C)C`, the GI50 is > 100 µM (inactive) in the test on A498; > 100 µM (inactive) in the test on COLO 205; > 100 µM (inactive) with EKVX; over 100 µM in the test with HCT-15; > 100 µM (inactive) in the test with HL-60; > 100 µM (inactive) with HOP-62. For the same molecule, the GI50 in the test with LOX IMVI, with MOLT-4, with Malme-3M, in the test on NCI-H226, in the test on NCI-H23 and in the test on NCI/ADR-RES was > 100 µM (inactive) each time. In addition, the GI50 with OVCAR-4, in the test with OVCAR-8, in the test with RXF 393, in the test with SF-268, in the test with SK-MEL-5 and with SNB-19 was > 100 µM (inactive) in each case.

For the molecule `COc1ccc(N2C(=O)/C(=C\c3cccc(Oc4ccccc4)c3)S(=O)(=O)C2c2ccccc2)cc1` (stereo not given), the GI50 with A498 was 28.9 µM (inactive); in the test on COLO 205, 64.1 µM (inactive); with EKVX it was 15.7 µM (inactive); with HCT-15, 21 µM; with HL-60, 7.24 µM (inactive); in the test with HOP-62, 51.9 µM (inactive). Further, the GI50 in the test on LOX IMVI is 27.6 µM (inactive); in the test on MOLT-4 it was 0.146 µM (active); with Malme-3M it was 24.4 µM (inactive); in the test with NCI-H226, 64.7 µM (inactive); in the test with NCI-H23, 28.4 µM (inactive); with NCI-H460, 36.7 µM (inactive). The GI50 is 16.2 µM (inactive) in the test on NCI/ADR-RES; 28.6 µM (inactive) in the test on OVCAR-4; 17.1 µM (inactive) in the test with RXF 393; 16.3 µM (inactive) in the test with SK-MEL-5; 47 µM (inactive) with SNB-19.
